Columns and labels:
[1] = molecular target: β-lactamase R244S (Escherichia coli, UniProt P62593, R241S); assay: Isothermal titration calorimetry, binding enthalpy, R244S mutant
Description: (§1) The binding of the compounds of the present invention to β-lactamase was also measured by isothermal titration calorimetry.
(§2) These experiments, in combination with the inhibition assays, indicate that the compounds identified in this disclosure bind to the wild type as well as drug resistant beta lactamases with favorable binding enthalpies. This is a very important characteristic from the point of view of further optimization since it facilitates the achievement of extremely high affinities and low susceptibilities to drug resistant mutations and naturally occurring polymorphisms.
(§3) Isothermal titration calorimetry was performed on a high-precision VP-ITC titration calorimeter (Microcal Inc., Northampton, Mass.). β-Lactamase solutions were titrated with inhibitors in 50 mM sodium phosphate, 2% DMSO, pH 7.0, with β-lactamase concentrations ranging from 15 to 25 μM and inhibitor concentrations ranging from 300 to 1000 μM. The heat evolved from each injection was obtained by integrating the calorimetric signal. Heat of binding was obtained as the difference between the heat of reaction and the heat of inhibitor dilution. Data were analyzed using Origin 7.0 (OriginLab Corporation, Northampton, Mass.).

[2] = molecular target: T1, AmpC β-lactamase (Escherichia coli, UniProt P00811); settings: binding to AmpC; ITC
T1 construct: made in house; host or cells: E. coli BL21 (DE3)
Description: as §3
Isothermal titration calorimetry was undertaken to determine the thermodynamic characteristics of binding to AmpC β-lactamase.

[3] = molecular target: T1, AmpC β-lactamase; assay: AmpC β-lactamase competitive inhibition assay (nitrocefin hydrolysis); type: biochemical
Description: The gene for AmpC β-lactamase (accession number P00811) was obtained from Escherichia coli K12 strain W3110 (American Type Culture Collection, Rockville Md.). E. coli was grown and plasmid (F-lacIq lacPL8 ampC::lambdacI+) was isolated via Qiagen (Valencia, Calif.) mini prep. The gene for AmpC was amplified in two pieces via polymerase chain reaction, ligated and purified by agarose gel electrophoresis. The ligated gene was inserted into a pET200 vector via a TOPO reaction (Invitrogen, Carlsbad, Calif.).
BL21 (DE3) (Invitrogen) cells were transformed by heat-shock with the prepared plasmid. These cells were grown to an OD600 of 0.8 at 37° C. Isopropylthiogalactoside (IPTG) was added to 1 mM, incubation temperature decreased to 25° C. and the cells were grown for an additional 18 hours. After 18 hours, the E. coli was pelleted by centrifugation, and discarded. The growth media was concentrated and dialyzed versus 100 mM Tris, pH 7.0. This solution was run through an equilibrated Q-resin column, and washed with excess 100 mM Tris, pH 7.0.
The competitive inhibition of β-lactamase was determined spectrophotometrically using a Varian (Walnut Creek, Calif.) Cary 100 UV-Visible spectrophotometer. β-lactamase activity was followed by measuring the hydrolysis of nitrocefin, [3-(2,4-dinitrostyryl)-(6R, 7R)-7-(2-thienylacetamido)-ceph-3-em-4-carboxylic acid, E-isomer], (Calbiochem, San Diego, Calif.) at 486 nm. Inhibition assays were performed at 25° C. in 50 mM sodium phosphate, 5% DMSO, pH 7.0. […] Penicillin G (Sigma, St. Louis, Mo.) was also used as a substrate to determine KM and kcat.
Inhibitor was added to protein and incubated for ten minutes before the addition of substrate. Inhibition constants were determined by measuring the loss of P-lactamase activity with increasing inhibitor concentrations and fitting the data to standard equations for competitive inhibition.

[4] = molecular target: TEM-1 β-lactamase (Escherichia coli, UniProt P62593); assay: TEM-1 β-lactamase inhibition assay (nitrocefin hydrolysis, 486 nm); type: biochemical; settings: Ki, 25° C., 50 mM sodium phosphate, 5% DMSO, pH 7.0; enzyme 5 nM, nitrocefin 167 μM
Outline: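 TEM-1 activity followed by nitrocefin hydrolysis at 486 nm, 25 °C, 50 mM sodium phosphate pH 7.0, 5% DMSO; inhibitor preincubated with enzyme 10 min before substrate. Ki obtained from rates at increasing inhibitor concentrations fitted to competitive-inhibition equations; penicillin G also used as substrate for KM and kcat.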

[5] = molecular target: β-lactamase M69I (Escherichia coli, UniProt P62593, M67I); assay: Isothermal titration calorimetry, binding enthalpy, M69I mutant
Description: as §1, §2, §3

[6] = molecular target: β-lactamase wt (Escherichia coli, UniProt P62593); assay: Isothermal titration calorimetry, binding enthalpy, wild type
Description: as §1, §2, §3

[7] = molecular target: β-lactamase E104K (Escherichia coli, UniProt P62593, E102K); assay: Isothermal titration calorimetry, binding enthalpy, E104K mutant
Description: as §1, §2, §3

[8] = molecular target: β-lactamase mutant E104K (Escherichia coli, UniProt P62593, E102K); type: biochemical; settings: number higher than 1 reflects a loss of potency against mutant
[9] = molecular target: β-lactamase mutant M69I (Escherichia coli, UniProt P62593, M67I); type: biochemical; settings: number higher than 1 reflects a loss of potency against mutant
[10] = molecular target: β-lactamase mutant R244S (Escherichia coli, UniProt P62593, R241S); type: biochemical; settings: number higher than 1 reflects a loss of potency against mutant

T1 sequence (P00811 20-377): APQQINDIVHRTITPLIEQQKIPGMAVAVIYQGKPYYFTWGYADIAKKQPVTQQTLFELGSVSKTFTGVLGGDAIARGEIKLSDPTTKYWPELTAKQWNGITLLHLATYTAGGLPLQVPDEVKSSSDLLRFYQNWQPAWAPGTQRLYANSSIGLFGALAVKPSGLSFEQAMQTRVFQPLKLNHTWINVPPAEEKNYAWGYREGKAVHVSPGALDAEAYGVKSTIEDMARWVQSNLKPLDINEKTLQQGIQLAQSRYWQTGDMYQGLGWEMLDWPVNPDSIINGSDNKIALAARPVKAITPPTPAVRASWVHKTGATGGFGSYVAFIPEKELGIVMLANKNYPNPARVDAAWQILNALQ

O=C(OCc1ccccc1)c1cc(B(O)O)cc([N+](=O)[O-])c1 [Compound F1201]
ΔH R244S [1]: -6.5 kcal/mol | ΔG [2]: -6.566 kcal/mol | ΔH [2]: -5.084 kcal/mol | −TΔS [2]: -1.482 kcal/mol | Ki [3]: 4.45 µM | Ki [4]: 27 µM | ΔH M69I [5]: -2.4 kcal/mol | ΔH wt [6]: -3.2 kcal/mol | ΔH E104K [7]: -3.5 kcal/mol | Loss of potency: ratio of the inhibitory constant between mutant and wild type (Potencywt/Potencymutant), E104K [8]: 0.48 | Loss of potency: ratio of the inhibitory constant between mutant and wild type (Potencywt/Potencymutant), M69I [9]: 0.52 | Loss of potency: ratio of the inhibitory constant between mutant and wild type (Potencywt/Potencymutant), R244S [10]: 0.86

From patent US7183267B2, “β-lactamase inhibitors and methods of use thereof” (priority 2003, dated 2007)
